Measured values as given in patent US5756813A, “Hindered aromatic ester compounds useful as anti-viral agents” (Uniroyal Chemical Ltd/Uniroyal Chemical Ltee, priority 1996, dated 1998).
Several values for one entry are separate records, joined by “and”; a condition that tells them apart may be missing. Identical values can stand only once. Like-named read-outs stand apart in the source and are kept apart here.

Legend:
[1] = test system: T4 lymphocytes (CEM cell line); test: Toxicity to uninfected T4 lymphocytes (CEM cell line): 50% inhibition of cell growth (second blank); assay type: cell-based, human; conditions: uninfected CEM cells, no HIV-1, cytotoxicity, replicate tests, read-out: IC50 (concentration that results in 50% inhibition of cell growth)
Experimental: (§1) 1) The test compound was dissolved in dimethyl sulfoxide and diluted 1:100 in cell culture medium before serial half-log10 dilutions were prepared. T4 lymphocytes (CEM cell line) were then added to the cell culture medium, and, finally, after a brief interval, HIV-1 was added, resulting in a 1:200 final dilution of the test compound. Uninfected cells in the cell culture medium containing the test compound (i.e., minus HIV-1) were used as a toxicity control, and infected cells in the cell culture medium without the test compound and uninfected cells in the cell culture medium without the test compound, were used as basic controls.
(§2) 2) The cultures were incubated at 37° C. in a 5% carbon dioxide atmosphere for 6 days.
(§3) 3) The tetrazolium salt, XTT, was added to all wells, and the cultures were then incubated to allow formazan color development by viable cells.
(§4) 4) Individual wells were analyzed spectrophotometrically to quantitate formazan production, and were also viewed microscopically for detection of viable cells and confirmation of protective activity.
(§5) 5) Virus-infected cells exposed to the test compound were compared with noninfected cells exposed to the test compound, and with other appropriate controls (infected cells not exposed to the test compound and noninfected cells not exposed to the test compound, wells containing only the test compound in the cell culture medium, and so on) on the same plate. These are the first and second blanks described below.
In the second blank, the T4 lymphocytes in cell culture medium and the test compound (with no HIV-1) were incubated together to measure the toxicity of the drug to the cellline. The viability of the cells was measured as a function of concentration of the compound, after incubation for seven days. The concentration of the test compound that results in 50% inhibition of cell growth is defined as its IC50.
(§6) The compounds were tested to determine their reduction of HIV cytopathic effect on the human cell line CEM. Tests were done by innoculating these cell lines in-well (IW), i.e., the test compound and CEM cells were mixed on a test plate and the virus was added a short time later.

[2] = test system: HIV-1; test: NCI in vitro anti-HIV screen: reduction of HIV-1 cytopathic effect in T4 lymphocytes (CEM cell line), XTT/formazan readout; assay type: cell-based, HIV-1 (in human cell line CEM); conditions: replicate tests; for TI50 (therapeutic index, IC50/EC50): calculated as IC50/EC50, CEM cells
Experimental: Representative compounds of this invention were tested for anti-viral activity by subjecting them to standard National Cancer Institute ("NCI") in vitro screening procedures. Two blanks were run with each test. The NCI test for agents active against HIV is designed to detect agents acting at any stage of the virus reproduction cycle.
In the test assay, small amounts of HIV are added to T4 lymphocyte cells. The assay measures the amount of T4 lymphocytes "killed" by HIV cytolysis. Since a complete cycle of viral reproduction is necessary to "kill" the T4 lymphocyte cells, agents that interfere with viral reproduction will protect the cells from cytolysis.
The NCI system is automated in several features to accomodate large numbers of candidate agents and is generally designed to detect anti-HIV activity. […] All tests are compared with at least one positive (AZT-treated) control done at the same time under identical conditions.
as §1, §2, §3, §4, §5
6) Data were reviewed in comparison with other tests done at the same time and a determination concerning activity was made. In the first blank, HIV and T4 lymphocytes in cell culture medium, were incubated together to measure the infectivity of the virus. The viability of the cells was measured after holding for six or seven days. In an "effective" test, most cells were infected before the holding period was complete.
Finally, the protective effects of the test compounds were measured. Each cell culture and test compound were incubated with the virus and the viability of the cells was measured as a function of compound concentration after incubation for six or seven days. The concentration of the test compound that results in 50% "control," i.e., a 50% reduction of the viral cytopathic effect, is defined as its EC50. The therapeutic index TI50 was calculated as IC50 /EC50.
Concentrations of test compounds required for between 20 and 50% reduction of the viral cytopathic effect can also be determined. Such compounds are classified as moderately active.
as §6

[3] = HIV-1 infected CEM cells, in-well (IW) inoculation, six or seven days, read-out: EC50 (concentration that results in 50% reduction of the viral cytopathic effect)
[4] = Human immunodeficiency virus 1, CCRF-CEM, 168 h, HIV-1 infected CEM cells, in-well (IW) inoculation, six or seven days, read-out: EC50 (concentration that results in 50% reduction of the viral cytopathic effect)

Compound | IC50 ([1]; Homo sapiens, CCRF-CEM) | IC50 [1] | EC50 [2, 3] | EC50 [2, 4] | TI50 (therapeutic index, IC50/EC50) [2] | EC50 ([2]; Human immunodeficiency virus 1, CCRF-CEM, 168 h, read-out: EC50 (concentration that results in 50% reduction of the viral cytopathic effect), HIV-1 infected CEM cells, in-well (IW) inoculation, six or seven days) | EC50 ([2]; read-out: EC50 (concentration that results in 50% reduction of the viral cytopathic effect), HIV-1 infected CEM cells, in-well (IW) inoculation, six or seven days)
CC1(OC(=O)c2cc(NC(=O)c3ccccc3)ccc2Cl)CCCC1 [Compound 1] | 41.8 µM | 49.5 µM and 32.7 µM and 32 µM | 11.5 µM and 15.2 µM and 17.6 µM | 17.3 µM | 2 and 4 |  | 
CC1(OC(=O)c2cc(NC(=S)c3ccccc3)ccc2Cl)CCCC1 [Compound 2] | 29.4 µM | 28.8 µM and 31 µM and 32 µM | 0.216 µM and 0.232 µM and 0.398 µM and 0.598 µM |  | 137 and 124 and 78 and 54 |  | 
CC1CCCC1OC(=O)c1cc(NC(=S)c2ccccc2)ccc1Cl (stereo not drawn) [Compound 3] | 14.1 µM | 12.2 µM and 13.8 µM | 0.0867 µM and 0.0783 µM and 0.101 µM | 0.0967 µM | 146 and 141 and 180 and 136 |  | 
CC1CCCC(C)C1OC(=O)c1cc(NC(=S)c2ccccc2)ccc1Cl (stereo not drawn) [Compound 4] | > 13 µM |  | 0.94 µM and 2.1 µM and 0.95 µM and 0.37 µM |  | > 14 and > 6 and > 35 |  | 
CC1CCCCC1OC(=O)c1cc(NC(=S)c2ccccc2)ccc1Cl (stereo not drawn) [Compound 5] | 16 µM | 14.1 µM and 13.6 µM and 13.4 µM | 0.175 µM and 0.199 µM and 0.0791 µM and 0.126 µM |  | 92 and 71 and 172 and 107 |  | 
CC1=C(C(=O)Nc2ccc(Cl)c(C(=O)OC3CCCCC3C)c2)SCCO1 (stereo not drawn) [Compound 6] | > 24 µM | 14 µM and 20 µM |  |  | > 1 and > 18 and 19 and 18 |  | 
CC1CCC(OC(=O)c2cc(NC(=O)c3ccccc3)ccc2Cl)C1 (stereo not drawn) [Compound 7] | 19 µM | 11 µM and 17 µM and 14 µM | 5.8 µM and 3.6 µM and 6.1 µM | 5.7 µM | 3 and 2 and 5 |  | 
CC1CCC(OC(=O)c2cc(NC(=S)c3ccccc3)ccc2Cl)C1 (stereo not drawn) [Compound 8] | 14.6 µM | 13.5 µM and 14.8 µM and 13.1 µM | 0.195 µM and 0.184 µM and 0.181 µM | 0.213 µM | 68 and 69 and 80 and 72 |  | 
CC1CCCCC1OC(=O)c1cc(NC(=O)c2ccccc2)ccc1Cl (stereo not drawn) [Compound 9, 2-methylcyclohexyl 2-chloro-5-(benzoylamino)benzoate] | 14.2 µM | 12.6 µM and 15.3 µM and 14.5 µM |  |  | 31 and 28 and 65 | 4.65 µM | 4.47 µM and 2.37 µM
Cc1ccccc1C(=O)Nc1ccc(Cl)c(C(=O)OC2CCCCC2C)c1 (stereo not drawn) [Compound 10] | 19.7 µM | 16.9 µM and 17.1 µM and 16.6 µM | 2.39 µM and 1.75 µM and 1.3 µM and 1.13 µM |  | 8 and 10 and 13 and 15 |  | 
Cc1ccccc1C(=S)Nc1ccc(Cl)c(C(=O)OC2CCCCC2C)c1 (stereo not drawn) [Compound 11] | > 9.4 µM |  | 5.4 µM and 4.4 µM | 5 µM | > 2 |  | 
CC(OC(=O)c1cc(NC(=S)c2ccccc2)ccc1Cl)C1CCCC1 (stereo not drawn) [Compound 12] | > 14 µM |  | 0.23 µM and 0.27 µM | 0.28 µM | > 48 and > 60 and > 50 |  | 
CC(OC(=O)c1cc(NC(=S)c2ccccc2)ccc1Cl)C1CC1 (stereo not drawn) [Compound 13] | > 38 µM |  | 2.1 µM and 2.2 µM and 0.79 µM and 0.72 µM |  | > 18 and > 17 and > 48 and > 52 |  | 
Cc1occc1C(=O)Nc1ccc(Cl)c(C(=O)OC(C)C2CCCC2)c1 (stereo not drawn) [Compound 14] | 7.7 µM | > 14 µM | 0.84 µM and 1.1 µM and 0.77 µM and 2.3 µM and 1.7 µM |  | 9 and > 13 and > 18 and > 6 and > 8 |  | 
Cc1occc1C(=O)Nc1ccc(Cl)c(C(=O)OC(C)C2CC2)c1 (stereo not drawn) [Compound 15] | > 21 µM |  | 1.4 µM and 2.5 µM and 1.1 µM |  | > 14 and > 8 and > 19 |  | 
Cc1occc1C(=S)Nc1ccc(Cl)c(C(=O)OC(C)C2CC2)c1 (stereo not drawn) [Compound 16] | > 20 µM |  |  |  | > 440 and > 240 and > 1600 |  | 
CC(OC(=O)c1cc(NC(=O)c2cccn2C)ccc1Cl)C1CC1 (stereo not drawn) [Compound 17] | > 54 µM |  | 5.3 µM and 9.7 µM and 5 µM and 4.1 µM |  | > 10 and > 6 and > 11 and > 13 |  | 
